According to paper PMC12076188 (Cancer Research Communications, 2025):
Read-outs that look alike come from different tables or passages of the source.

What was measured:
[1] = test system: NCI-H358 cells; test: Cell-cycle analysis by flow cytometry; type: cell-based, human; conditions: NCI-H358, 24 hours, 10 to 1,000 nmol/L
Description: Cells were then harvested and fixed using FxCycle PI/RNase Staining Solution (Invitrogen). Cell populations at varying stages of the cell cycle were examined using Miltenyi MACSQuant Analyzer and FlowJo software (RRID: SCR_008520) based on the distribution of DNA content.

[2] = molecular target: Sodium channel Nav1.5 (Homo sapiens, UniProt Q14524); test: 41-target safety off-target activity panel
[3] = molecular target: Adrenergic β1 (Homo sapiens, UniProt P08588); test: 41-target safety off-target activity panel
[4] = molecular target: T1, Androgen AR (androgen receptor) (Homo sapiens, UniProt P10275); test: 41-target safety off-target activity panel
T1 sequence (P10275 1-920): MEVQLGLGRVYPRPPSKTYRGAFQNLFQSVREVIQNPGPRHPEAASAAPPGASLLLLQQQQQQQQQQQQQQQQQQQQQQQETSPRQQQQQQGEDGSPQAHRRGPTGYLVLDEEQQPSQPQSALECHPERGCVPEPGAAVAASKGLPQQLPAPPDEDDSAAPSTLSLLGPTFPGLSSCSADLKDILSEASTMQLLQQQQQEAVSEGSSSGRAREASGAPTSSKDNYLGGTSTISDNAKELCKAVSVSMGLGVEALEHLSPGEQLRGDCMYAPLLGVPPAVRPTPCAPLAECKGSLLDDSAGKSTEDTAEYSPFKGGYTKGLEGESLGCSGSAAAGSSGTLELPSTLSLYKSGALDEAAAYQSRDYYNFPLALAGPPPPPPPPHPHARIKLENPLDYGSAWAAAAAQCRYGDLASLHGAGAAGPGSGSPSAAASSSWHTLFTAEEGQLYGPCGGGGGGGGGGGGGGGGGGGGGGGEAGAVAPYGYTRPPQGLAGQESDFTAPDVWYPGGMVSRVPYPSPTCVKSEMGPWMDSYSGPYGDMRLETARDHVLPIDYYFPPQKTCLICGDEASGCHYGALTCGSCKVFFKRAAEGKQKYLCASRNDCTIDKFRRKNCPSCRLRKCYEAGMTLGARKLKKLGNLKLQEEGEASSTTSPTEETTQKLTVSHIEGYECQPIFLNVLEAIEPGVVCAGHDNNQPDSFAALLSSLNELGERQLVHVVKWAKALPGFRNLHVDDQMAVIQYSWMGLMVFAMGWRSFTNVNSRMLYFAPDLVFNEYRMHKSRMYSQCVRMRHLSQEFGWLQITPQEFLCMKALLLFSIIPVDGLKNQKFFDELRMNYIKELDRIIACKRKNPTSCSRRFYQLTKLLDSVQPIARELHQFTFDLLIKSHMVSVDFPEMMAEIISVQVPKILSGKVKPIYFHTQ

[5] = molecular target: T2, GppNp-bound HRAS WT (Homo sapiens, UniProt P01112); test: GppNp-loaded RAS and cRAF interaction assay (HTRF); type: biochemical
T2 construct: His-tagged HRAS WT (aa 1–166); made in house; host or cells: Escherichia coli

[6] = molecular target: 5-Hydroxytryptamine 5HT1B (Homo sapiens, UniProt P28222); test: 41-target safety off-target activity panel
[7] = molecular target: 5-Hydroxytryptamine 5HT2B (Homo sapiens, UniProt P41595); test: 41-target safety off-target activity panel
[8] = molecular target: 5-Hydroxytryptamine 5HT2A (Homo sapiens, UniProt P28223); test: 41-target safety off-target activity panel
[9] = molecular target: Opioid μ (Homo sapiens, UniProt P35372); test: 41-target safety off-target activity panel
[10] = molecular target: T3, PIM2 (Homo sapiens, UniProt Q9P1W9); test: 330-kinase panel; type: biochemical
T3 construct: purchased ICE Bioscience (contract screen)
Description: Supplementary Table S4. 330-kinase panel.

[11] = molecular target: TK LCK (Homo sapiens, UniProt P06239); test: 41-target safety off-target activity panel
[12] = molecular target: Norepinephrine Transporter NET (Homo sapiens, UniProt P23975); test: 41-target safety off-target activity panel
[13] = test system: caspase 3/7 in NCI-H358 cells; test: Apoptosis assay (Caspase-Glo 3/7); type: cell-based, human; conditions: NCI-H358, 1 μmol/L
Method: NCI-H358 cells (6,000 cells/well) were seeded in 96-well plates and cultured overnight. […] Apoptosis was quantified using the Caspase-Glo 3/7 assay system (Promega), following the manufacturer’s instructions. Luminescence signals were measured by the Tecan Spark multimode microplate reader (RRID: SCR_021897).

[14] = AUC in plasma and brain following a single oral dose; type: in vivo, Rat (Sprague-Dawley); conditions: 300 mg/kg; for Kp: brain; for AUC(0-t): plasma, read-out: AUC0-24h Plasma
[15] = test system: SW837 cells; test: 3D cell viability combination study with cetuximab (Loewe synergy); type: cell-based; conditions: Homo sapiens
Method: (§1) The inhibitory activity of compounds on Ba/F3-engineered cell line viability was tested by Kyinno Biotechnology. Other cell viability assays on human cancer cell lines were conducted in-house. Cells were seeded in 96-well plates and incubated overnight, followed by treatment with various concentrations of compounds or solvent control for 6 days. Cell viability was detected using either the CellTiter-Glo (CTG) luminescent cell viability assay or the CTG 3D cell viability assay (Promega) for 2D and 3D CTG assays, respectively. For 3D CTG assays, cells were plated in round-bottom ultra-low attachment 96-well plates (Corning 7007). The cell density is indicated in Supplementary Table S3.
(§2) The synergistic effect in combination studies was determined using SynergyFinder^+ R package (RRID: SCR_019318; ref. [23]). Loewe score >5 indicates synergistic effect, −5 ≤ Loewe score ≤5 additive effect, and Loewe score < −5 antagonistic effect.
(§3) WT: wild type; AMP: amplification; CTG: CellTiter-Glo.

[16] = test system: SW1463 cells; test: as above; type: cell-based; conditions: Homo sapiens
Method: as §1, §2, §3

[17] = Rat (Sprague-Dawley), Female, single dose
[18] = Rat (Sprague-Dawley), Male, single dose

Sequence of Adrenergic β1 (P08588 whole entry): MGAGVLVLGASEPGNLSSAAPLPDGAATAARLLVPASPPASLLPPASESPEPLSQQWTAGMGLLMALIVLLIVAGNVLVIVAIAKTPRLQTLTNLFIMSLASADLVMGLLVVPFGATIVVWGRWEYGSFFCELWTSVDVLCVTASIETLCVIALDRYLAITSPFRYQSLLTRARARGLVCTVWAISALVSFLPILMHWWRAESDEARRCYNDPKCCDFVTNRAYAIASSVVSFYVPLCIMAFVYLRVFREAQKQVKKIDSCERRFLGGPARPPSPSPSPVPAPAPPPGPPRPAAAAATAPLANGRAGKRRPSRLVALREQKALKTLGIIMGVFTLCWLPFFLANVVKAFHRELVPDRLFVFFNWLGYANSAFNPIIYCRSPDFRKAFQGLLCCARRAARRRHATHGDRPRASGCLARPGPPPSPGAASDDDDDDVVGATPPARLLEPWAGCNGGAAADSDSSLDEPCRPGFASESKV
Sequence of 5-Hydroxytryptamine 5HT2A (P28223 whole entry): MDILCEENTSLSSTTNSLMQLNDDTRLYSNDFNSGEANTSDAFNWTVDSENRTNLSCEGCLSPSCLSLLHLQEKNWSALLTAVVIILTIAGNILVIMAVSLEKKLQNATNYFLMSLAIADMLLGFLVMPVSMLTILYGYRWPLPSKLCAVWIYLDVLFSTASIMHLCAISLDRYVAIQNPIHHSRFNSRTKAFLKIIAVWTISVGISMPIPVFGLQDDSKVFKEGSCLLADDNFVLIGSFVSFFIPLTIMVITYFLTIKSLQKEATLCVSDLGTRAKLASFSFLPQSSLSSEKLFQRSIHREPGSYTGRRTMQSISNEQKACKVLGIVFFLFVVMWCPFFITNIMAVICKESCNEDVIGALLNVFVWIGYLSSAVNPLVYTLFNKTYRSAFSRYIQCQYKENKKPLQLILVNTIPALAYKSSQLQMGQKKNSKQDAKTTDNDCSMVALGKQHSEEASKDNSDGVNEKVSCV
Sequence of 5-Hydroxytryptamine 5HT2B (P41595 whole entry): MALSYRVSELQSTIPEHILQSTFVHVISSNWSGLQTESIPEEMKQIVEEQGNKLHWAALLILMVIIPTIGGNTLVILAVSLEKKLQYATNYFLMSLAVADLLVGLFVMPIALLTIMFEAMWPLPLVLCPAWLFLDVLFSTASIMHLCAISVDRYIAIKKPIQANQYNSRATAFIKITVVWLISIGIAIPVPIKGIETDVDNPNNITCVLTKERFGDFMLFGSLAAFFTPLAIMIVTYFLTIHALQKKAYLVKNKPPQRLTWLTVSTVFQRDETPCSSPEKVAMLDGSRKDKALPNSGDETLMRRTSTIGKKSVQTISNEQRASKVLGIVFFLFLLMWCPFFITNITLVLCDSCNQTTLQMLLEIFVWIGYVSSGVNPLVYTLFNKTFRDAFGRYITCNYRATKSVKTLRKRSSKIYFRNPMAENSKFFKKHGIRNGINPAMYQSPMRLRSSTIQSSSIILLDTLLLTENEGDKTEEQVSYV
Sequence of 5-Hydroxytryptamine 5HT1B (P28222 whole entry): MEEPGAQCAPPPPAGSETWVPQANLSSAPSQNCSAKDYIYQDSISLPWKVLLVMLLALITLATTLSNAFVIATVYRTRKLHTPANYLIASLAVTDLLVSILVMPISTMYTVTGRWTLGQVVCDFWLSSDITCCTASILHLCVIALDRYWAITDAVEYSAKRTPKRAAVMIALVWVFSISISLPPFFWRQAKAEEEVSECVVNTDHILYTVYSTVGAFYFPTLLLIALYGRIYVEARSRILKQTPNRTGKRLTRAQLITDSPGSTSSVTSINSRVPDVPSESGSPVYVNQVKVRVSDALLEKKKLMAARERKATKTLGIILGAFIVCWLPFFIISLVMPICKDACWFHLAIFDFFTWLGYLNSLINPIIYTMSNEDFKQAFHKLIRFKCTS
Sequence of Opioid μ (P35372 whole entry): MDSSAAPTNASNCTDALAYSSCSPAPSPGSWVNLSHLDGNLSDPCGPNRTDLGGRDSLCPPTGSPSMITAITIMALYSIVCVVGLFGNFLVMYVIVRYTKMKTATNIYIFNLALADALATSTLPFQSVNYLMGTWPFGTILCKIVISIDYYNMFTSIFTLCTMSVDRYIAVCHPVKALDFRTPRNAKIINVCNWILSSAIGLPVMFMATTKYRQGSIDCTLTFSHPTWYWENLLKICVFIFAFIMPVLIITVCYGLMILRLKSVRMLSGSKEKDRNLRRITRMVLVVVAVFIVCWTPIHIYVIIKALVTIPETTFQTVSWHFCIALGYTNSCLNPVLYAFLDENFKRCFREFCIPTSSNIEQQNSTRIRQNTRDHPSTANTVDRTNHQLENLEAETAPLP
Sequence of Sodium channel Nav1.5 (Q14524 whole entry): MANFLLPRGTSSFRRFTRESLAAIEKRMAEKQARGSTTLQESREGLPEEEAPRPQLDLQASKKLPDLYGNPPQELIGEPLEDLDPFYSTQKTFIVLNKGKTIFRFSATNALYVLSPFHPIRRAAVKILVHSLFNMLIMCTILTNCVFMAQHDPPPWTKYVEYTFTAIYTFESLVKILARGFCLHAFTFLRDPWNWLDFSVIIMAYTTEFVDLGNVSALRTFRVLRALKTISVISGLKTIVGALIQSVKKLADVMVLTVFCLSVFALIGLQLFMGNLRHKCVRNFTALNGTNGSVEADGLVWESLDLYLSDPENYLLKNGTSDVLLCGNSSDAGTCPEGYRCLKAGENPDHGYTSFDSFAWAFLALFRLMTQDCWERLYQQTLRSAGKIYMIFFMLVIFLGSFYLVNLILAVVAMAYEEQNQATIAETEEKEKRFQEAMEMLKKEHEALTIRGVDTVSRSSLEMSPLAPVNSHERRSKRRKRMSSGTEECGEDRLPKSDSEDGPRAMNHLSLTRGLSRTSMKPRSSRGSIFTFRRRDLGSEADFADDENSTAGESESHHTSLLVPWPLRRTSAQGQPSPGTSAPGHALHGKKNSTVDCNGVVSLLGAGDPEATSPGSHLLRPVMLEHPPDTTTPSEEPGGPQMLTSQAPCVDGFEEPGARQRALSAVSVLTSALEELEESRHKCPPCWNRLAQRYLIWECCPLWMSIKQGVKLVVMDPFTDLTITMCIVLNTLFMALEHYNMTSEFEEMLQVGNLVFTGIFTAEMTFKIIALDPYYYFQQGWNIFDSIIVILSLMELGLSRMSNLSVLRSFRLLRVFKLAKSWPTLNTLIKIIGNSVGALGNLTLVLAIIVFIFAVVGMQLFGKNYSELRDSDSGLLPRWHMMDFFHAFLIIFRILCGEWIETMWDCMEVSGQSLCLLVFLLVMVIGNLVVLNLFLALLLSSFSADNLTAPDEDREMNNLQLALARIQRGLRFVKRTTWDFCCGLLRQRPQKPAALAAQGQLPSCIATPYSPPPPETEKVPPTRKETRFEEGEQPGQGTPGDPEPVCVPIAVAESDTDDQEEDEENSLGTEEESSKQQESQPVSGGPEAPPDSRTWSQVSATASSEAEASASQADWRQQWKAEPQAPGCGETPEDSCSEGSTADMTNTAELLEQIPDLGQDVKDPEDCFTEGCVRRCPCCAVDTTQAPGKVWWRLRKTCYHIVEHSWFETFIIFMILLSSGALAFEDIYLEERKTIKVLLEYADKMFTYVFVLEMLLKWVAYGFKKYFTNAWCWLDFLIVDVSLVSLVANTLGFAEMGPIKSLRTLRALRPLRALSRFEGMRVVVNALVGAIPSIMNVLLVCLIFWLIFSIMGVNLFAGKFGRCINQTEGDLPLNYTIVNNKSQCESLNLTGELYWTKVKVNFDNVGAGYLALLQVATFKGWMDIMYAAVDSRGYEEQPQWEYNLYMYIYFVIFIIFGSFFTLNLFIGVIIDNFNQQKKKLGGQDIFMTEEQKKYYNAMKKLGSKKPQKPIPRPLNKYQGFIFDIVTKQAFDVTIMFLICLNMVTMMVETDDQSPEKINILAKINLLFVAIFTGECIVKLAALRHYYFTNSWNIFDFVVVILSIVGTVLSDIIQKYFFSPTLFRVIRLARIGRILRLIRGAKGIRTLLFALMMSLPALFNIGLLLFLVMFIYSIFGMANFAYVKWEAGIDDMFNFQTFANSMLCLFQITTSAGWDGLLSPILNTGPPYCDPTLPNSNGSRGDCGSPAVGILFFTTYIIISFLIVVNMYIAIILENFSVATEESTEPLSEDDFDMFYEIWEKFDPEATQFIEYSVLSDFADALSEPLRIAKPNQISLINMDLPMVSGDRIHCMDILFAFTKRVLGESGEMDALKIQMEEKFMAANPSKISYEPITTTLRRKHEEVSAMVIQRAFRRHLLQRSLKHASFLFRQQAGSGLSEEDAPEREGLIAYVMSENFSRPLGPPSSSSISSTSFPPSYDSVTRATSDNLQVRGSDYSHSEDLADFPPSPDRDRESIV
T3 sequence (Q9P1W9 whole entry, species assumed): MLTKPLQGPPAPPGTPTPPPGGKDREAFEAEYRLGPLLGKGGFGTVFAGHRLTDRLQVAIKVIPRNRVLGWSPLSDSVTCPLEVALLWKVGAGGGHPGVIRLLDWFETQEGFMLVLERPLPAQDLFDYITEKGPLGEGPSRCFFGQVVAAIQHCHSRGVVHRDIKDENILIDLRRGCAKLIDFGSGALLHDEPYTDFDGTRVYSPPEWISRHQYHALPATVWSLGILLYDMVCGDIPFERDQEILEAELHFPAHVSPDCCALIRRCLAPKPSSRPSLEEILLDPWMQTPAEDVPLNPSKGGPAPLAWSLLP
T2 sequence (P01112 1-166): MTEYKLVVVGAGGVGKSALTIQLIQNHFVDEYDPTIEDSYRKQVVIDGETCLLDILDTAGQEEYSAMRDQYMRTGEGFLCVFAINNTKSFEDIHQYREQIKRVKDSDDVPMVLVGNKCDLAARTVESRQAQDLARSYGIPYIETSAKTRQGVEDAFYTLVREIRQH

C=CC(=O)N1CCN(c2c(C#N)c(=O)n(-c3c(C)ccnc3C(C)C)c3nc(-c4c(N)c(F)c(F)c(F)c4F)c(Cl)cc23)CC1 [Glecirasib]
cell-cycle effect [1]: induced cell-cycle arrest at the G0/G1 phase in a dose-dependent manner | inhibition at 10 µM [2]: 1.01% | inhibition at 10 µM [3]: 30.9% | Mean % activation ([3]; Glecirasib 10 μM): 16.84% | IC50 [4]: 3.6 µM | inhibition at 10 µM [4]: 115% | Mean % activation ([4]; Glecirasib 10 μM): -33.00% | IC50 [5]: > 10 µM | inhibition at 10 µM [6]: -1.28% | Mean % activation ([6]; Glecirasib 10 μM): 7.33% | inhibition at 10 µM [7]: 21.7% | Mean % activation ([7]; Glecirasib 10 μM): 2.59% | inhibition at 10 µM [8]: 13.6% | Mean % activation ([8]; Glecirasib 10 μM): -0.04% | inhibition at 10 µM [9]: 36.9% | Mean % activation ([9]; Glecirasib 10 μM): 5.69% | inhibition at 10 µM [10]: 50% | inhibition at 10 µM [11]: 0.93% | inhibition at 10 µM [12]: -35.7% | treatment time at which maximal caspase 3/7 activity was reached ([13]; 2 to 72 hours): 72 h | apoptosis induction (caspase 3/7 activity) ([13]; time course): increasingly induced apoptosis in a time-dependent manner | AUC0-24h Brain (h·ng/g) [14, 17]: 1,875 h·ng/g | AUC0-24h Brain (h·ng/g) [14, 18]: 1,677 h·ng/g | Kp ([14]; Sprague-Dawley, rat, rats, read-out: brain distribution, % of AUC in plasma): 0.1 | Kp ([14]; Rat (Sprague-Dawley), Female, single dose, read-out: Brain/Plasma AUC0-24h ratio (%)): 0.102 | Kp ([14]; Rat (Sprague-Dawley), Male, single dose, read-out: Brain/Plasma AUC0-24h ratio (%)): 0.0904 | AUC(0-t) [14, 17]: 18400 ng·h/mL | AUC(0-t) [14, 18]: 18600 ng·h/mL | inhibition at 0.000195 µM [15]: -6% | inhibition at 0.000781 µM [15]: 8% | inhibition at 0.00313 µM [15]: 20% | inhibition at 0.0125 µM [15]: 48% | inhibition at 0.05 µM [15]: 64% | inhibition at 0.2 µM [15]: 70% | inhibition at 0.000391 µM [16]: -2% | inhibition at 0.00156 µM [16]: 1% | inhibition at 0.025 µM [16]: 29% | inhibition at 0.1 µM [16]: 55% | inhibition at 0.4 µM [16]: 69%
